Results reported in PubChem BioAssay AID1361 (SRMLSC, 2008).
Activity calls are given as the source filed them. How the calls were made is not given here.

Experiment: mitochondrial fusion inhibitors, confirmation, cell-based, chemical genetic, wild-type and mutant (AID 1361)
Details: Cell-based mitochondrial fusion phenotype, imaging
[1] = mutant cells, measured here: mutant cell line IC50

SMILES: Cc1cccc(-c2noc(CN(C(=O)CCc3ccccc3)C(C)C)n2)c1
- IC50 (WT cells): > 25 µM (inactive)
- IC50 [1]: 24.5 µM

SMILES: CC(C)(C)c1ccc(CNc2ccc([N+](=O)[O-])cn2)cc1
- IC50 (WT cells): > 25 µM (inactive)
- IC50 [1]: > 25 µM

SMILES: CC(C)(C)C1CCc2c(sc(NC(=O)CSc3ncn[nH]3)c2C#N)C1 (stereo not drawn)
- IC50 (WT cells): 15.8 µM
- IC50 [1]: > 25 µM

SMILES: O=C(Nc1ccc(Cl)cc1)N1CCN(c2ccc3nnc(-c4ccc(F)cc4)n3n2)CC1
- IC50 (WT cells): > 25 µM (inactive)
- IC50 [1]: > 25 µM

SMILES: COc1ccccc1N1CCN(CC(=O)Nc2ccc(Cl)c(C(F)(F)F)c2)CC1
- IC50 (WT cells): 20.2 µM
- IC50 [1]: > 25 µM

SMILES: CCCCOC(=O)c1ccc(NC(=O)c2ccccc2OC)cc1
- IC50 (WT cells): > 25 µM (inactive)
- IC50 [1]: > 25 µM

SMILES: O=c1c2c3c(sc2nc(NCCO)n1CCc1ccccc1)CCCCC3
- IC50 (WT cells): 22.3 µM
- IC50 [1]: > 25 µM

SMILES: CC(C)(C)[C@H]1C=C(C(=O)N2CCN(Cc3ccccc3)CC2)O[C@@H](OCc2ccc(CO)cc2)C1
- IC50 (WT cells): 21.7 µM
- IC50 [1]: > 25 µM

SMILES: CCCOP(=O)(OCCC)C(Nc1cccc(C(F)(F)F)c1)c1ccc(C)cc1 (stereo not drawn)
- IC50 (WT cells): 11.2 µM
- IC50 [1]: > 25 µM

SMILES: CCOC(=O)/C(=C\c1cccnc1)C(=O)c1cc(C(C)=O)c(Nc2ccccc2)s1
- IC50 (WT cells): 4.87 µM
- IC50 [1]: > 25 µM

SMILES: O=C(Nc1ccccc1Oc1ccccc1)c1cc([N+](=O)[O-])ccc1Cl
- IC50 (WT cells): 6.46 µM
- IC50 [1]: 19.6 µM

SMILES: FC(F)(F)c1cc(-c2ccco2)nc(NCc2ccc(Cl)cc2)n1
- IC50 (WT cells): 14.8 µM
- IC50 [1]: > 25 µM

SMILES: CCOC(=O)c1c(NC(=O)c2cccs2)sc2c1CCCC2
- IC50 (WT cells): > 25 µM (inactive)
- IC50 [1]: > 25 µM

SMILES: COc1ccc(-c2noc(CSc3nnc(Cc4ccccc4)n3-c3ccc(Cl)cc3)n2)cc1
- IC50 (WT cells): 16.1 µM
- IC50 [1]: > 25 µM

SMILES: c1ccc(-c2csc3ncnc(N4CCc5ccccc5C4)c23)cc1
- IC50 (WT cells): 9.44 µM
- IC50 [1]: > 25 µM

SMILES: CCC(C)(C)NC(=O)C(c1ccc(C)cc1)N(Cc1cccs1)C(=O)c1ccc2c(c1)OCCO2 (stereo not drawn)
- IC50 (WT cells): 14.1 µM
- IC50 [1]: > 25 µM

SMILES: Fc1ccc(Nc2nc(N/N=C/c3ccco3)nc(N3CCCCC3)n2)cc1
- IC50 (WT cells): 19.3 µM
- IC50 [1]: > 25 µM

SMILES: N#CC1=C(N)NC(SCc2ccc(Br)cc2)=C(C#N)C12CCCCC2
- IC50 (WT cells): > 25 µM (inactive)
- IC50 [1]: > 25 µM

SMILES: COC(=O)c1ccc(C2C3=C(Nc4nnnn42)c2ccccc2OC3)cc1 (stereo not drawn)
- IC50 (WT cells): > 25 µM (inactive)
- IC50 [1]: > 25 µM

SMILES: C=CCn1c(SCC(=O)Nc2cccc(C(=O)OC)c2)nnc1C(C)NC(=O)c1cccs1 (stereo not drawn)
- IC50 (WT cells): > 25 µM (inactive)
- IC50 [1]: > 25 µM

SMILES: CC(C)SCc1cc(N2CCCC2)nc(-c2ccccc2)n1
- IC50 (WT cells): 23.5 µM
- IC50 [1]: > 25 µM

SMILES: CCOc1ccc(NS(=O)(=O)c2cnc(Cl)c(Cl)c2)cc1
- IC50 (WT cells): 20.5 µM
- IC50 [1]: > 25 µM

SMILES: CCCCN(C(=O)c1cccc2c(=O)c(C)c(-c3ccccc3)oc12)c1ccccc1
- IC50 (WT cells): 14.7 µM
- IC50 [1]: > 25 µM

SMILES: O=C(COC(=O)c1cc(-c2cccc(Br)c2)nc2ccccc12)NCC1CCCO1 (stereo not drawn)
- IC50 (WT cells): 19.8 µM
- IC50 [1]: > 25 µM

SMILES: CC(C)(C)c1ccc(OCC(=O)N2CCCCCC2)c(Br)c1
- IC50 (WT cells): > 25 µM (inactive)
- IC50 [1]: > 25 µM

SMILES: CC(C)(C)[C@H]1C=C(C(=O)N2CCN(Cc3ccc4c(c3)OCO4)CC2)O[C@@H](OCc2ccc(CO)cc2)C1
- IC50 (WT cells): 10 µM
- IC50 [1]: > 25 µM

SMILES: CCCCc1ccc(NC(=S)Nc2ccc(Cl)c(S(=O)(=O)N(C)C)c2)cc1
- IC50 (WT cells): 9.48 µM
- IC50 [1]: > 25 µM

SMILES: O=C(Nc1ccccn1)c1ccco1
- IC50 (WT cells): > 25 µM (inactive)
- IC50 [1]: > 25 µM

SMILES: O=C(CSc1nnc(CCc2ccccc2)n1-c1ccc(Cl)cc1)c1ccccc1
- IC50 (WT cells): 17.2 µM
- IC50 [1]: > 25 µM

SMILES: CC1(C)CC(=O)C2=C(C1)N(c1ccc(F)cc1)C(=O)C2(O)C(F)(F)F (stereo not drawn)
- IC50 (WT cells): > 25 µM (inactive)
- IC50 [1]: > 12.5 µM

SMILES: CCCCSc1nnc(-c2ccc(C)cc2)c2ccccc12
- IC50 (WT cells): 9.57 µM
- IC50 [1]: 23.1 µM

SMILES: Cc1ccc(NC(=S)N(CCCN2CCCC2)Cc2cccn2Cc2ccc(Cl)cc2)cc1
- IC50 (WT cells): 14.4 µM
- IC50 [1]: > 25 µM

SMILES: Cc1ccc(NC(=O)C2SC(=Nc3ccccc3)C(C(=O)Nc3ccc(Cl)cc3)=C2N)cc1 (stereo not drawn)
- IC50 (WT cells): > 25 µM (inactive)
- IC50 [1]: > 25 µM

SMILES: CCc1nnc(NC(=O)C2Cc3ccccc3CN2S(=O)(=O)c2ccc(C)cc2)s1 (stereo not drawn)
- IC50 (WT cells): > 25 µM (inactive)
- IC50 [1]: > 25 µM

SMILES: CC(C)N1C(=S)SC(C)(C)C1n1oc(=O)n(-c2ccc(Cl)c(Cl)c2)c1=O (stereo not drawn)
- IC50 (WT cells): > 25 µM (inactive)
- IC50 [1]: > 25 µM

SMILES: CC(NC(=O)/C(=C/c1ccc(OC(F)F)cc1)c1ccccc1)c1ccccc1 (stereo not drawn)
- IC50 (WT cells): 11.5 µM
- IC50 [1]: > 25 µM

SMILES: CCc1cc2c(=O)c(-c3cscn3)coc2cc1O
- IC50 (WT cells): > 25 µM (inactive)
- IC50 [1]: > 25 µM

SMILES: O=C(CN1CCCCC1)Nc1ccc(Br)cc1C(=O)c1ccccc1Cl
- IC50 (WT cells): 12 µM
- IC50 [1]: > 25 µM

SMILES: COc1ccc(C(=O)N(Cc2nc(-c3ccc(C)cc3)no2)C2CCCCC2)cc1OC
- IC50 (WT cells): 20.2 µM
- IC50 [1]: > 25 µM

SMILES: CC1(C)CC(=O)C(C=Nc2ccc3[nH]ncc3c2)=C(O)C1
- IC50 (WT cells): > 25 µM (inactive)
- IC50 [1]: > 25 µM

SMILES: O=C(Nc1ccc2c(c1)OCO2)c1ccccc1SCC(=O)N1CCCC1
- IC50 (WT cells): > 25 µM (inactive)
- IC50 [1]: > 25 µM

SMILES: O=S(=O)(NCC(Nc1ccc(Cl)cc1)c1ccccc1)c1ccc(Cl)cc1 (stereo not drawn)
- IC50 (WT cells): > 25 µM (inactive)
- IC50 [1]: > 12.5 µM

SMILES: Cc1nc(-c2ccccc2)sc1-c1nc(-c2ccncc2)ncc1S(=O)(=O)c1ccccc1
- IC50 (WT cells): 10.5 µM
- IC50 [1]: > 25 µM

SMILES: CCCCCC(=O)Nc1cc(N(C)C)nc2ccccc12
- IC50 (WT cells): > 25 µM (inactive)
- IC50 [1]: > 25 µM

SMILES: O=C(Nc1cc(Cl)ccc1Oc1ccccc1)c1ccc(F)cc1
- IC50 (WT cells): 22.7 µM
- IC50 [1]: > 25 µM

SMILES: O=Nc1c(O)n(Cc2cccc(Cl)c2)c2ccccc12
- IC50 (WT cells): > 25 µM (inactive)
- IC50 [1]: > 25 µM

SMILES: C/C=C(\C)CN1CCN(c2cc(C)ccc2C)CC1
- IC50 (WT cells): > 25 µM (inactive)
- IC50 [1]: > 25 µM

SMILES: Cc1ccc2cc(CN(C(=O)c3ccco3)c3ccccc3C)c(=O)[nH]c2c1
- IC50 (WT cells): > 25 µM (inactive)
- IC50 [1]: > 25 µM

SMILES: Cc1cc(C)n(-c2nc(C)nc3c2cnn3-c2ccccc2)n1
- IC50 (WT cells): > 25 µM (inactive)
- IC50 [1]: > 25 µM

SMILES: O=c1c2c3c(sc2nc2n1CCC2)CCC3
- IC50 (WT cells): > 25 µM (inactive)
- IC50 [1]: > 25 µM

SMILES: Cc1cccc(OCCCC(=O)Nc2ccc3c(c2)OCO3)c1
- IC50 (WT cells): > 25 µM (inactive)
- IC50 [1]: > 25 µM

SMILES: CCCCNC(=S)N(C)/N=C/c1c(F)c(F)c(F)c(F)c1F
- IC50 (WT cells): > 25 µM (inactive)
- IC50 [1]: > 25 µM

SMILES: OCCNc1c2c(nc3ccccc13)CCCC2
- IC50 (WT cells): > 25 µM (inactive)
- IC50 [1]: > 25 µM

SMILES: Cc1sc(NC(=O)c2ccccc2)c(C(c2ccc(Cl)cc2)N2CCN(CCO)CC2)c1C (stereo not drawn)
- IC50 (WT cells): 13.5 µM
- IC50 [1]: > 25 µM

SMILES: CC12CC3(C)CC(C)(C1)CC(C(=O)NC(=S)NC(C)(C)C)(C2)C3
- IC50 (WT cells): 11.6 µM
- IC50 [1]: > 25 µM

SMILES: CCOc1ccccc1CNC(=O)c1ccc(Sc2ccc(Cl)cc2)c(NC(C)=O)c1
- IC50 (WT cells): 16.9 µM
- IC50 [1]: > 25 µM

SMILES: C/C(=C\C(=O)c1ccccc1)Nc1cccc(O)c1
- IC50 (WT cells): > 25 µM (inactive)
- IC50 [1]: > 25 µM

SMILES: Cc1ccc(/C=N/NC(=O)COc2ccccc2-c2ccccc2)cc1
- IC50 (WT cells): 14.9 µM
- IC50 [1]: > 25 µM

SMILES: O=C(CSCc1cccc(Cl)c1)Nc1ccccc1-c1ccccc1
- IC50 (WT cells): 12.1 µM
- IC50 [1]: > 25 µM
